{"source": "patent EP1509285B1", "about": "“SYNERGISTIC COMPOSITION OF TRANS-TETRACOS-15-ENOIC ACID AND APOCYNIN AND USE THEREOF” (COUNCIL OF SCIENTIFIC AND INDUSTRIAL RESEARCH, priority 2002, dated 2003)", "tested_on": "bile flow and bile solids", "assay": "Choleretic activity: bile flow and bile solids after bile duct cannulation in normal anaesthetised rats", "format": "in vivo", "details": "50 mg kg-1 i.d., bile collected 0-5 hours, mean ±SE", "excerpt": "The liver, by producing bile, plays an important role in digestion. The presence of bile in the intestine is necessary to accomplish the digestion and absorption of fats as well as absorption of the fat-soluble vitamins- A, D, E & K. Bile is also an important vehicle of excretion. It removes many drugs, toxins, bile pigments and various inorganic substances either derived from the diet or synthesized by the body as cholesterol or as cholic acid.\nEffect on the liver bile flow of test drug and that of vehicle is carried out after cannulating the bile duct in normal anaesthesied rats. Bile collected is from each animal from 0-5 hours (Klaassen, 1969, Donal et al.1953). (Table 5)", "data": [{"compound": "C[C@H](CCC(=O)O)[C@H]1CC[C@H]2[C@@H]3C(=O)C[C@@H]4CC(=O)CC[C@]4(C)[C@H]3CC(=O)[C@]12C", "note": "[DHC, Dehydrocholic acid, reference compound]", "values": [{"measurement": "Bile parameters % Increase (as compared to normal) Bile flow", "result": "38.40±2.76", "unit": "ml%"}, {"measurement": "Bile parameters % Increase (as compared to normal) Bile solids", "result": "28.13±3.89", "unit": "mg%"}]}]}
